Test results taken from paper PMC8896804 (Science Advances, 2022).

What was measured:
[1] = system: S. pusilla; test: Survival after hyper-osmotic salinity exposure; type: in vivo, Stylochoplana pusilla; conditions: 10^−6 M OVTA, n = 45, Fig. 3B
[2] = system: platytocin receptor (PTR); type: cell-based; conditions: COS-7 cells transfected with ptr, cotreated with platytocin 90 min at 37°C; global Schild analysis, slope of 1; mean ± SEM, n = 4

Substance: [d(CH2)5^1, Tyr(Me)^2, Thr^4, Orn^8, Tyr^9-NH2]–vasotocin [OVTA]
- hyperosmolality (70 ppt) resistance [1]: Hyperosmolality (70 ppt) resistance is blocked by 10^−6 M OVTA
- pA2, block of platytocin-mediated IP1 accumulation [2]: 6.99 ± 0.27
